According to PMC5218480 (PLoS ONE, 2017):

Tested on: MV-4-11 cells
Test: Gene expression microarray analysis (Affymetrix PrimeView) and GSEA
Type: cell-based, human
Parameters: RFU PODN (11730768_x_at) / Fold change /veh PODN (11730768_x_at) / RFU LINC00158 (11744669_a_at) / Fold change /veh LINC00158 (11744669_a_at) / RFU DUSP10 (11751237_a_at) / Fold change /veh DUSP10 (11751237_a_at) / RFU ID3 (11757404_x_at) / Fold change /veh ID3 (11757404_x_at) / RFU PLEKHG5 (11737974_s_at) / Fold change /veh PLEKHG5 (11737974_s_at) / RFU LRRC4B (11730491_at) / Fold change /veh LRRC4B (11730491_at) / RFU GIMAP4 (11747438_a_at) / Fold change /veh GIMAP4 (11747438_a_at) / RFU KRT8 (11758183_x_at) / Fold change /veh KRT8 (11758183_x_at) / RFU CNN1 (11734310_a_at) / Fold change /veh CNN1 (11734310_a_at) / RFU VPS37D (11726825_at) / Fold change /veh VPS37D (11726825_at) / RFU C10orf10 (11716522_x_at) / Fold change /veh C10orf10 (11716522_x_at) / RFU KIR2DL2 /// KIR2DL4 /// KIR2DL5A /// KIR2DL5B /// KIR2DS1 /// KIR2DS2 /// KIR2DS3 /// KIR2DS4 /// KIR3DL3 /// KIR3DL3 /// KIR3DS1 (11738374_at) / Fold change /veh KIR2DL2 /// KIR2DL4 /// KIR2DL5A /// KIR2DL5B /// KIR2DS1 /// KIR2DS2 /// KIR2DS3 /// KIR2DS4 /// KIR3DL3 /// KIR3DL3 /// KIR3DS1 (11738374_at) / RFU C1QL1 (11718748_at) / Fold change /veh C1QL1 (11718748_at) / RFU TMPRSS4 (11747572_a_at) / Fold change /veh TMPRSS4 (11747572_a_at) / RFU HAMP (11756126_x_at) / Fold change /veh HAMP (11756126_x_at) / RFU RNFT2 (11725882_a_at) / Fold change /veh RNFT2 (11725882_a_at) / RFU NR4A2 (11747474_a_at) / Fold change /veh NR4A2 (11747474_a_at) / RFU ABCC12 (11746883_a_at) / Fold change /veh ABCC12 (11746883_a_at) / RFU TMEM136 (11760407_x_at) / Fold change /veh TMEM136 (11760407_x_at) / RFU CLDN22 /// WWC2 (11732394_at) / Fold change /veh CLDN22 /// WWC2 (11732394_at) / RFU HLA-DPB1 (11760878_x_at) / Fold change /veh HLA-DPB1 (11760878_x_at) / RFU SPINT1 (11716480_a_at) / Fold change /veh SPINT1 (11716480_a_at) / RFU GAP43 (11754022_s_at) / Fold change /veh GAP43 (11754022_s_at) / RFU A4GNT (11735810_at) / Fold change /veh A4GNT (11735810_at) / RFU PRB3 (11715151_x_at) / Fold change /veh PRB3 (11715151_x_at) / RFU TUBB4B (11761932_at) / Fold change /veh TUBB4B (11761932_at) / RFU CAPN14 (11732068_a_at) / Fold change /veh CAPN14 (11732068_a_at) / RFU TMCC2 (11721928_a_at) / Fold change /veh TMCC2 (11721928_a_at) / RFU IRGQ (11745062_a_at) / Fold change /veh IRGQ (11745062_a_at) / RFU FAM174B (11720279_a_at) / Fold change /veh FAM174B (11720279_a_at) / RFU TMPRSS4 (11748680_a_at) / Fold change /veh TMPRSS4 (11748680_a_at) / RFU FAM212B (11763350_a_at) / Fold change /veh FAM212B (11763350_a_at) / RFU PLEKHG5 (11743358_a_at) / Fold change /veh PLEKHG5 (11743358_a_at) / RFU ZSCAN30 (11745921_a_at) / Fold change /veh ZSCAN30 (11745921_a_at) / RFU CMKLR1 (11741424_a_at) / Fold change /veh CMKLR1 (11741424_a_at) / RFU LOC101060620 /// MAPK8IP1 (11723275_at) / Fold change /veh LOC101060620 /// MAPK8IP1 (11723275_at) / RFU SPTSSB (11747773_x_at) / Fold change /veh SPTSSB (11747773_x_at) / RFU PRSS12 (11739890_at) / Fold change /veh PRSS12 (11739890_at) / RFU BIN1 (11741810_x_at) / Fold change /veh BIN1 (11741810_x_at) / RFU WNT11 (11732464_a_at) / Fold change /veh WNT11 (11732464_a_at) / RFU C10orf10 (11716521_a_at) / Fold change /veh C10orf10 (11716521_a_at) / RFU C5orf56 (11738089_at) / Fold change /veh C5orf56 (11738089_at) / RFU CYB561 (11721691_x_at) / Fold change /veh CYB561 (11721691_x_at) / RFU ANKRD19P (11752326_a_at) / Fold change /veh ANKRD19P (11752326_a_at) / RFU OR2T12 /// OR2T33 /// OR2T8 (11738714_s_at) / Fold change /veh OR2T12 /// OR2T33 /// OR2T8 (11738714_s_at) / RFU VCAN (11748164_a_at) / Fold change /veh VCAN (11748164_a_at) / RFU JSRP1 (11732532_at) / Fold change /veh JSRP1 (11732532_at) / RFU KRTAP10-11 (11738290_x_at) / Fold change /veh KRTAP10-11 (11738290_x_at) / RFU MYO3A (11730013_a_at) / Fold change /veh MYO3A (11730013_a_at) / RFU EBF3 (11725865_a_at) / Fold change /veh EBF3 (11725865_a_at) / RFU CAMK2N1 (11719241_x_at) / Fold change /veh CAMK2N1 (11719241_x_at) / RFU C5orf56 (11738088_a_at) / Fold change /veh C5orf56 (11738088_a_at) / RFU OLFML3 (11715873_a_at) / Fold change /veh OLFML3 (11715873_a_at) / RFU LOC100653217 /// NTM (11731650_a_at) / Fold change /veh LOC100653217 /// NTM (11731650_a_at) / RFU MAPK11 (11762145_a_at) / Fold change /veh MAPK11 (11762145_a_at) / RFU FIZ1 (11724087_x_at) / Fold change /veh FIZ1 (11724087_x_at) / RFU OASL (11726364_x_at) / Fold change /veh OASL (11726364_x_at) / RFU SOX15 (11748057_x_at) / Fold change /veh SOX15 (11748057_x_at) / RFU CD79A (11719716_a_at) / Fold change /veh CD79A (11719716_a_at) / RFU HIST1H1D (11736915_at) / Fold change /veh HIST1H1D (11736915_at) / RFU CASKIN2 (11723855_a_at) / Fold change /veh CASKIN2 (11723855_a_at) / RFU LOC730098 (11760151_x_at) / Fold change /veh LOC730098 (11760151_x_at) / RFU OR4N2 (11742367_at) / Fold change /veh OR4N2 (11742367_at) / RFU PRRT2 (11749266_a_at) / Fold change /veh PRRT2 (11749266_a_at) / RFU SNX32 (11753110_a_at) / Fold change /veh SNX32 (11753110_a_at) / RFU CDHR5 (11726645_a_at) / Fold change /veh CDHR5 (11726645_a_at) / RFU RCAN1 (11760418_a_at) / Fold change /veh RCAN1 (11760418_a_at) / RFU FAM167A (11723789_a_at) / Fold change /veh FAM167A (11723789_a_at) / RFU FAM26E (11764081_at) / Fold change /veh FAM26E (11764081_at) / RFU ISYNA1 (11749810_s_at) / Fold change /veh ISYNA1 (11749810_s_at) / RFU ACY1 (11761880_at) / Fold change /veh ACY1 (11761880_at) / RFU 11764098_at / Fold change /veh 11764098_at / RFU SAMD14 (11745864_x_at) / Fold change /veh SAMD14 (11745864_x_at) / RFU NPB (11741838_a_at) / Fold change /veh NPB (11741838_a_at) / RFU TMPRSS6 (11731388_a_at) / Fold change /veh TMPRSS6 (11731388_a_at) / RFU KRTAP10-2 (11738614_at) / Fold change /veh KRTAP10-2 (11738614_at) / RFU ARHGAP8 /// PRR5-ARHGAP8 (11727945_x_at) / Fold change /veh ARHGAP8 /// PRR5-ARHGAP8 (11727945_x_at) / RFU KRTAP5-7 /// NADSYN1 (11734609_at) / Fold change /veh KRTAP5-7 /// NADSYN1 (11734609_at) / RFU RASL12 (11751679_a_at) / Fold change /veh RASL12 (11751679_a_at) / RFU CDKN2B (11736163_a_at) / Fold change /veh CDKN2B (11736163_a_at) / RFU PRF1 (11729649_at) / Fold change /veh PRF1 (11729649_at) / RFU, ZNF638 /// ZNF638-IT1 / Fold change vs veh, ZNF638 /// ZNF638-IT1 / RFU, PANK3 / Fold change vs veh, PANK3 / RFU, SH3YL1 / Fold change vs veh, SH3YL1 / RFU, ZEB2 / Fold change vs veh, ZEB2 / RFU, NRIP1 / Fold change vs veh, NRIP1 / RFU, PTTG1IP / Fold change vs veh, PTTG1IP / RFU, CAPN2 / Fold change vs veh, CAPN2 / RFU, MED14 / Fold change vs veh, MED14 / RFU, SNORA58 / Fold change vs veh, SNORA58 / RFU, C1orf63 / Fold change vs veh, C1orf63 / RFU, LRRFIP1 / Fold change vs veh, LRRFIP1 / RFU, NDUFAF7 / Fold change vs veh, NDUFAF7 / RFU, SLC12A2 / Fold change vs veh, SLC12A2 / RFU, IBTK / Fold change vs veh, IBTK / RFU, ESF1 / Fold change vs veh, ESF1 / Fold change vs veh, TMEM50B / RFU, TAOK1 / Fold change vs veh, TAOK1 / RFU, ACBD3 / Fold change vs veh, ACBD3 / RFU, TMA16 / Fold change vs veh, TMA16 / RFU, RWDD3 / Fold change vs veh, RWDD3 / RFU, BCAT1 / Fold change vs veh, BCAT1 / RFU, EDEM3 / Fold change vs veh, EDEM3 / RFU, TMEM33 / Fold change vs veh, TMEM33 / RFU, WDR75 / Fold change vs veh, WDR75 / RFU, AHCTF1 / Fold change vs veh, AHCTF1 / RFU, TFRC / Fold change vs veh, TFRC / RFU, ZDHHC17 / Fold change vs veh, ZDHHC17 / RFU, NOM1 / Fold change vs veh, NOM1 / RFU, ARL8B / Fold change vs veh, ARL8B / RFU, ZBTB11 / Fold change vs veh, ZBTB11 / RFU, TAMM41 / Fold change vs veh, TAMM41 / RFU, KIAA1704 /// LOC100996395 / Fold change vs veh, KIAA1704 /// LOC100996395 / RFU, ING1 / Fold change vs veh, ING1 / RFU, TRMT61B / Fold change vs veh, TRMT61B / RFU, FUBP3 / Fold change vs veh, FUBP3 / RFU, TP53 / Fold change vs veh, TP53 / RFU, TNKS2 / Fold change vs veh, TNKS2 / RFU, ZFP14 / Fold change vs veh, ZFP14 / RFU, ACTR2 / Fold change vs veh, ACTR2 / RFU, PPP3R1 / Fold change vs veh, PPP3R1 / RFU, PIK3R1 / Fold change vs veh, PIK3R1 / RFU, HNRNPA1 / Fold change vs veh, HNRNPA1 / RFU, RNF170 / Fold change vs veh, RNF170 / RFU, ZNF28 / Fold change vs veh, ZNF28 / RFU, RNGTT / Fold change vs veh, RNGTT / RFU, OGT / Fold change vs veh, OGT / RFU, BRD1 / Fold change vs veh, BRD1 / RFU, MARS / Fold change vs veh, MARS / RFU, ZNF655 / Fold change vs veh, ZNF655 / RFU, FAHD1 / Fold change vs veh, FAHD1 / RFU, BDP1 / Fold change vs veh, BDP1 / RFU, LRRCC1 / Fold change vs veh, LRRCC1 / RFU, ARID1A / Fold change vs veh, ARID1A / RFU, ZNF146 / Fold change vs veh, ZNF146 / RFU, ZNF330 / Fold change vs veh, ZNF330 / RFU, GPN3 / Fold change vs veh, GPN3 / RFU, C9orf123 / Fold change vs veh, C9orf123 / RFU, N4BP2L2 / Fold change vs veh, N4BP2L2 / RFU, ARFIP1 / Fold change vs veh, ARFIP1 / RFU, FAM179B / Fold change vs veh, FAM179B / RFU, BCL10 / Fold change vs veh, BCL10 / RFU, UHRF1BP1L / Fold change vs veh, UHRF1BP1L / RFU, BET1 / Fold change vs veh, BET1 / RFU, CNOT2 / Fold change vs veh, CNOT2 / RFU, ZNF268 / Fold change vs veh, ZNF268 / Fold change vs veh, ZNF507 / RFU, DGCR2 / Fold change vs veh, DGCR2 / RFU, WDSUB1 / Fold change vs veh, WDSUB1 / Fold change vs veh, HSP90B1 /// MIR3652 / RFU, ADSS / Fold change vs veh, ADSS / RFU, GK / Fold change vs veh, GK / RFU, ZNF148 / Fold change vs veh, ZNF148 / RFU, TAF9 / Fold change vs veh, TAF9 / RFU, SLC1A5 / Fold change vs veh, SLC1A5 / RFU, SLMO2 / Fold change vs veh, SLMO2 / RFU, ABCC4 / Fold change vs veh, ABCC4 / RFU, LOC101060439 /// RAP1B / Fold change vs veh, LOC101060439 /// RAP1B / RFU, RFX7 / Fold change vs veh, RFX7 / RFU, GTPBP10 / Fold change vs veh, GTPBP10 / RFU, CNEP1R1 / Fold change vs veh, CNEP1R1 / RFU, BIVM-ERCC5 /// ERCC5 / Fold change vs veh, BIVM-ERCC5 /// ERCC5 / RFU, ILF3 / Fold change vs veh, ILF3 / RFU 11762660_at / Fold change /veh 11762660_at / RFU VCAN (11757783_s_at) / Fold change /veh VCAN (11757783_s_at) / RFU DDX43 (11728927_at) / Fold change /veh DDX43 (11728927_at) / RFU KRT8 (11758188_x_at) / Fold change /veh KRT8 (11758188_x_at) / RFU NKD1 (11759106_at) / Fold change /veh NKD1 (11759106_at) / RFU SRD5A1 (11742802_a_at) / Fold change /veh SRD5A1 (11742802_a_at) / RFU TPSAB1 /// TPSB2 (11721975_s_at) / Fold change /veh TPSAB1 /// TPSB2 (11721975_s_at) / RFU GSTM3 (11746129_a_at) / Fold change /veh GSTM3 (11746129_a_at) / RFU IL23R (11737362_x_at) / Fold change /veh IL23R (11737362_x_at) / RFU TMEM51 (11727254_a_at) / Fold change /veh TMEM51 (11727254_a_at) / RFU PIWIL2 (11732686_x_at) / Fold change /veh PIWIL2 (11732686_x_at) / RFU ORM1 (11744905_x_at) / Fold change /veh ORM1 (11744905_x_at) / RFU CCDC152 (11743942_at) / Fold change /veh CCDC152 (11743942_at) / RFU ECM1 (11717891_a_at) / Fold change /veh ECM1 (11717891_a_at) / RFU IL23R (11748794_a_at) / Fold change /veh IL23R (11748794_a_at) / RFU TNFAIP8L3 (11732012_x_at) / Fold change /veh TNFAIP8L3 (11732012_x_at) / RFU MBOAT4 (11741988_at) / Fold change /veh MBOAT4 (11741988_at) / RFU 11764193_at / Fold change /veh 11764193_at / RFU TMEM53 (11763286_at) / Fold change /veh TMEM53 (11763286_at) / RFU MAGEB2 (11727129_at) / Fold change /veh MAGEB2 (11727129_at) / RFU TMEM200A (11744735_a_at) / Fold change /veh TMEM200A (11744735_a_at) / RFU CCDC152 (11751479_a_at) / Fold change /veh CCDC152 (11751479_a_at) / RFU FAM211A (11726209_a_at) / Fold change /veh FAM211A (11726209_a_at) / RFU RGS16 (11746705_a_at) / Fold change /veh RGS16 (11746705_a_at) / RFU VCAN (11755009_s_at) / Fold change /veh VCAN (11755009_s_at) / RFU RHOB (11743442_s_at) / Fold change /veh RHOB (11743442_s_at) / RFU RGS16 (11720943_a_at) / Fold change /veh RGS16 (11720943_a_at) / RFU RGS16 (11720944_at) / Fold change /veh RGS16 (11720944_at) / RFU, VPS4B / Fold change vs veh, VPS4B / RFU, CREB1 / Fold change vs veh, CREB1 / RFU, DNAJC13 / Fold change vs veh, DNAJC13 / RFU, GNAQ / Fold change vs veh, GNAQ / RFU, CDK5R1 / Fold change vs veh, CDK5R1 / RFU, ZRANB3 / Fold change vs veh, ZRANB3 / RFU, CUL4A / Fold change vs veh, CUL4A / RFU, CCNY / Fold change vs veh, CCNY / RFU, UFL1 / Fold change vs veh, UFL1 / RFU, COG3 / Fold change vs veh, COG3 / RFU, DIAPH2 / Fold change vs veh, DIAPH2 / RFU, SKA2 / Fold change vs veh, SKA2 / RFU, AFF3 / Fold change vs veh, AFF3 / RFU, LMF1 / Fold change vs veh, LMF1 / RFU, IPO11 / Fold change vs veh, IPO11 / RFU, DFFB / Fold change vs veh, DFFB / RFU, FOXP1 / Fold change vs veh, FOXP1 / RFU, CARD8 / Fold change vs veh, CARD8 / RFU, STRN3 / Fold change vs veh, STRN3 / RFU, ADK / Fold change vs veh, ADK / RFU, RASSF2 / Fold change vs veh, RASSF2 / RFU, WIPF1 / Fold change vs veh, WIPF1 / RFU, LARP1B / Fold change vs veh, LARP1B / RFU, RASA1 / Fold change vs veh, RASA1 / RFU, RB1 / Fold change vs veh, RB1 / RFU, PPFIA1 / Fold change vs veh, PPFIA1 / RFU, MAT2A / Fold change vs veh, MAT2A / RFU, CCT5 / Fold change vs veh, CCT5 / RFU, WDR92 / Fold change vs veh, WDR92 / RFU, CUX1 / Fold change vs veh, CUX1 / RFU, TTC7A / Fold change vs veh, TTC7A / RFU, TMEM135 / Fold change vs veh, TMEM135 / RFU, DEPTOR / Fold change vs veh, DEPTOR / RFU, CPM / Fold change vs veh, CPM / RFU, DNAJB6 / Fold change vs veh, DNAJB6 / RFU, CACNA2D3 / Fold change vs veh, CACNA2D3 / RFU, DTX4 / Fold change vs veh, DTX4 / RFU, TFCP2 / Fold change vs veh, TFCP2 / RFU, GMCL1 /// GMCL1P1 / Fold change vs veh, GMCL1 /// GMCL1P1 / RFU, AEBP2 / Fold change vs veh, AEBP2 / RFU, SNHG1 /// SNORD22 /// SNORD25 /// SNORD26 /// SNORD27 /// SNORD28 /// SNORD29 /// SNORD31 / Fold change vs veh, SNHG1 /// SNORD22 /// SNORD25 /// SNORD26 /// SNORD27 /// SNORD28 /// SNORD29 /// SNORD31 / Fold change (Aza/veh), C12orf56 (ProbeSet 11735607_a_at) / Fold change (ACY-1035/veh), C12orf56 (ProbeSet 11735607_a_at) / Fold change (Aza/veh), FGFR1OP (ProbeSet 11751329_s_at) / Fold change (ACY-1035/veh), FGFR1OP (ProbeSet 11751329_s_at) / Fold change (Aza/veh), VPS36 (ProbeSet 11739960_a_at) / Fold change (ACY-1035/veh), VPS36 (ProbeSet 11739960_a_at) / RFU SYPL1 (11715823_x_at) / Fold change /veh SYPL1 (11715823_x_at) / RFU IGFBP7 (11715501_s_at) / Fold change /veh IGFBP7 (11715501_s_at) / RFU REEP3 (11722064_at) / Fold change /veh REEP3 (11722064_at) / RFU IGLL1 (11728026_x_at) / Fold change /veh IGLL1 (11728026_x_at): dose or concentration left out as unconfirmed
Conditions: ProbeSet 11723475_a_at; LIST B

In the case of Nc1ccc(-c2cccs2)cc1NC(=O)c1ccc2c(c1)cc(C1CC1)n2CCN1CCOCC1 [ACY-1035], the “Fold change vs veh, TRMT61B” value is reported as 0.88.
